# Experiments:
# Cyp2C8 = molecular target: T1, Cyp2C8 (Homo sapiens, UniProt P10632); experiment: CyP450-Inhibition, recombinant Cytochrome P450 isoenzymes, fluorometric assay; assay type: in vitro ADME; details: for IC50: recombinant CyP 450 enzyme, fluorescence-labelled substrate
# T1 construct: host or cells: insect cells (named in the general description as the expression system for P450 cDNAs)
# T1 sequence (P10632 1-490): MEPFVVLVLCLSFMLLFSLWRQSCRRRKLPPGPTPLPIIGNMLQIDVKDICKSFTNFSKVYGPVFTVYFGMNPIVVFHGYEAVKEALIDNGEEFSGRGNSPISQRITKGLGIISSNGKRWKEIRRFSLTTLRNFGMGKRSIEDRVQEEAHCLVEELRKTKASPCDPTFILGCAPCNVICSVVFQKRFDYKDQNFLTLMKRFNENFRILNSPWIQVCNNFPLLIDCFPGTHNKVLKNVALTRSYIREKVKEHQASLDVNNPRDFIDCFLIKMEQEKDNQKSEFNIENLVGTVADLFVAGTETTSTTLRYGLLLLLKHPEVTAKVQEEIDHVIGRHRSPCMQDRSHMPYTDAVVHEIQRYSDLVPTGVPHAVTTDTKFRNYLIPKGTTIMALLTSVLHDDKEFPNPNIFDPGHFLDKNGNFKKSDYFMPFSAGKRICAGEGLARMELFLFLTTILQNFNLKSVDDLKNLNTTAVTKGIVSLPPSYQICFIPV
# Description: (§1) This can be shown according to the following test system: Human liver microsomes or high level expression of cDNAs encoding Cytochrome P450 in insect cells provide a flexible source of materials for several in vitro measurement methods. A microtiter plate-based, direct fluorometric assay for the activities of any one or more of the principal drug metabolizing enzymes CYP1A2, CYP2C8, CYP2C9, CYP2C19, CYP2D6 and/or CYP3A4 is used in order to assess the potential for drug candidates to inhibit cytochrome P450.
# (§2) Fluorescent marker substrates are incubated at concentrations close to their Michaelis-Men-ten affinity constant, Km. Inhibitors are tested in the 1 to 10 μM concentration range. 50% inhibition concentration (IC50 values) are estimated by non-linear regression of a two parameter model equation where the lower data limit is 0, i.e. the data are background corrected, and the upper data limit is 100, i.e. the data are range corrected. The equation assumes that y falls with increasing x. […] Extrapolation or interpolation of IC50 values beyond the concentration range studied are not provided.
# (§3) Details for the assays and the technology that forms the basis for the assays are known (see C. L. Crespi et al., Analytical Biochemistry 248, 188-190 (1997), and CIL. Crespi et al., J. Pharmacol. Toxicol. Methods 44, 325-331 (2000), and the references mentioend therein). For example, 3-cyano-7-ethoxycoumarin is used as fluorescent substrate for CyP1A2, CYP2C9, CYP2C19 and CYP2D6, 7-methoxy-4-trifluoromethylcoumarin is used for CYP2C9, resorufin benzyl ether for CYP3A4, 3-82-(N,N-diethyl-N-methylammonium)ethyl]-7-methoxy-4-methylcoumarin for CYP2D6.
# (§4) By the help of recombinant CyP 450 enzymes, the corresponding IC50 values for the compounds of formula I are determined. […] Description of the Assay: Fluorescence-labelled substrate compounds are incubated with different concentrations of test compound of formula I with recombinant Cytochrome P450 Isoenzymes. […] For details see above in the general description.
# Cyp2C9 = molecular target: T2, Cyp2C9 (Homo sapiens, UniProt P11712); experiment: as above; assay type: in vitro ADME; details: for IC50: recombinant CyP 450 enzyme, fluorescence-labelled substrate
# T2 construct: host or cells: insect cells (named in the general description as the expression system for P450 cDNAs)
# Description: as §1, §2, §3, §4
# Cyp3A4 = molecular target: T3, Cyp3A4 (Homo sapiens, UniProt P08684); experiment: as above; assay type: in vitro ADME; details: for IC50: recombinant CyP 450 enzyme, fluorescence-labelled substrate
# T3 construct: host or cells: insect cells (named in the general description as the expression system for P450 cDNAs)
# Description: as §1, §2, §3, §4
# [1] = molecular target: T4, Flt-1 VEGF-receptor tyrosine kinase (Homo sapiens, UniProt P17948); experiment: Test for activity against Flt-1 VEGF-receptor tyrosine kinase; assay type: biochemical; details: kinase domain of Flt-1, poly(Glu,Tyr) 4:1, 8 μM [33P]-ATP, 15 minutes at room temperature
# T4 construct: 10 ng of the kinase domain of Flt-1
# T4 sequence (P17948 827-1158 limits assumed): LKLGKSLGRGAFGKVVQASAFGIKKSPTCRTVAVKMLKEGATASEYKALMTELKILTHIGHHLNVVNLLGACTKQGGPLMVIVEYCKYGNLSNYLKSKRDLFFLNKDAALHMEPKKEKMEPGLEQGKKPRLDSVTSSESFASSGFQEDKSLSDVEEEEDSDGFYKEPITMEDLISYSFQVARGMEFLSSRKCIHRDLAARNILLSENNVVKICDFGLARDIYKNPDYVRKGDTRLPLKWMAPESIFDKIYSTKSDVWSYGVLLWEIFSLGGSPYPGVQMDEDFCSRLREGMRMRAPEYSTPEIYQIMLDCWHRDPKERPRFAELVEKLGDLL
# Method: Test for activity against VEGF-receptor tyrosine kinase: the test is conducted using Flt-1 VEGF-receptor tyrosine kinase. The detailed procedure is as follows: 30 μl kinase solution (10 ng of the kinase domain of Flt-1, Shibuya et al., Oncogene 5, 519-24 [1990]) in 20 mM Tris.HCl pH 7.6, 3 mM manganese dichloride (MnCl2), 3 mM magnesium chloride (MgCl2) and 3 μg/ml poly(Glu,Tyr) 4:1 (Sigma, Buchs, Switzerland), 8 μM [^33P]-ATP (0.2 μCi/batch), 1% dimethyl sulfoxide, and 0 to 50 μM of the compound to be tested are incubated together for 15 minutes at room temperature. The reaction is then ended by the addition of 10 μl 0.25 M ethylenediaminetetraacetate (EDTA) pH 7. Using a multichannel dispenser (LAB SYSTEMS, USA), an aliquot of 20 μl is applied to a PVDF (=polyvinyl difluoride) Immobilon P membrane (Millipore, USA), which is incorporated into a Millipore microtitre filter manifold, and connected to a vacuum. Following complete elimination of the liquid, the membrane is washed 4 times successively in a bath containing 0.5% phosphoric acid (H3PO4), incubated for 10 minutes each time while shaking, then mounted in a Hewlett Packard TopCount Manifold and the radioactivity measured after the addition of 10 μl Microscint® (β-scintillation counter liquid; Packard USA). […]
# The IC50 values determined are given below, insofar as they have been accurately determined: […]
# T2 sequence (P11712 whole entry): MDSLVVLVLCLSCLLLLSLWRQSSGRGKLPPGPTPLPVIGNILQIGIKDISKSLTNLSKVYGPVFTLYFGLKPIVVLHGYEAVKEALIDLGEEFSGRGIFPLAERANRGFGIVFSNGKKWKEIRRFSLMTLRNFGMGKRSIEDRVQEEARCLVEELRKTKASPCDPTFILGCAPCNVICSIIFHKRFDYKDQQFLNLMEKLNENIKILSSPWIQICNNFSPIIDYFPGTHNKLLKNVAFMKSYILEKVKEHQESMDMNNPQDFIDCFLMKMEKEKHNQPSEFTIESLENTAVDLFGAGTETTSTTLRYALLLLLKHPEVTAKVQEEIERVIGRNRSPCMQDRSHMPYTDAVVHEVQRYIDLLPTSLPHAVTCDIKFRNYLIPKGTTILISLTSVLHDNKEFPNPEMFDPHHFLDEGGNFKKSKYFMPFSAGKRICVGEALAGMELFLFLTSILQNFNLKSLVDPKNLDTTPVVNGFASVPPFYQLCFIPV
# T3 sequence (P08684 whole entry): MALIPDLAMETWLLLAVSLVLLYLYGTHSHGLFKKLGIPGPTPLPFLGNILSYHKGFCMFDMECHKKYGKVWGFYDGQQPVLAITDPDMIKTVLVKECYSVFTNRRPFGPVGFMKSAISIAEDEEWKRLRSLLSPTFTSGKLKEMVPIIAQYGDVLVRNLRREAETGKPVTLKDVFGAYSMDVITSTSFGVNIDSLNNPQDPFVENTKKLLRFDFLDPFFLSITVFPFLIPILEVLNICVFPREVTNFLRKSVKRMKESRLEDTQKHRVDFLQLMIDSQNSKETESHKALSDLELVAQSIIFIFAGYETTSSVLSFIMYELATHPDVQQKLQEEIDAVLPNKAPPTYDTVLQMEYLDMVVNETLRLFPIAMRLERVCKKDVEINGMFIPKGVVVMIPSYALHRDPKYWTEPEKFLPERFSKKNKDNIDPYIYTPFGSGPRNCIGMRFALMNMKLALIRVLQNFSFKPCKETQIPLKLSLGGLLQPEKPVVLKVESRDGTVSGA
SMILES,IC50 (Cyp2C8) [nM],IC50 (Cyp2C9) [nM],IC50 (Cyp3A4) [nM],IC50 [1] [nM],further results
CCc1ccc(Nc2nnc(Cc3ccc(=O)[nH]c3)c3ccccc23)cc1Br [Ex. 8],> 10000,3500,2800,,lower inhibition when compared with Ex. 14 q from WO 00/59509 (Cyp2C8; ratio of IC50 values): more than two-fold; lower inhibition when compared with Ex. 14 q from WO 00/59509 (Cyp2C9; ratio of IC50 values): more than two-fold; lower inhibition when compared with Ex. 14 q from WO 00/59509 (Cyp3A4; ratio of IC50 values): more than two-fold
COc1cc(Cc2nnc(N[C@H]3CC[C@H](C(C)C)CC3)c3ccccc23)ccn1 [Example 1 d)],,,,1200,
"CCc1ccc(Nc2nnc(Cc3ccnc(OC)c3)c3ccccc23)cc1Br [Example 2 d), 1-(3-Bromo-4ethyl-anilino)-4-[2-methoxy-(pyridin-4-yl)-methyl]-phthalazine]",,,,1900,
"CC(C)[C@H]1CC[C@H](Nc2nnc(Cc3ccnc(O)c3)c3ccccc23)CC1 [Example 1, trans 1-(4-Isopropyl-cyclohexylamino)4-[2-hydroxy-(pyridin-4-yl)methyl]-phthalazine]",,,,,melting point: 266 to 267 °C (dec.)
"CCc1ccc(Nc2nnc(Cc3ccncc3)c3ccccc23)cc1Br [WO 00/59509 (Ex. 14 q), reference compound]",5000,< 1000,< 1000,,
